Tests used:
[1] = al-Refaie et al. 1992; cited from earlier work
[2] = background statement; cited from earlier work
[3] = design: species or system Sprague Dawley rats; conditions: rat, in vivo
Description: Sprague Dawley rats (n=130) were obtained from Charles River Laboratories and were iron overloaded by twelve week administration of iron in the feed. The rats were divided into the following groups: • (i) overloaded (O), • (ii) liposomes injected (OL), • (iii) overloaded animals with liposome entrapped desferrioxamine (OLD), and • (iv) overloaded with desferrioxamine (OD).
All control groups were pooled as there were not significant differences between the groups of normal non-treated controls. Range for iron was 35-150 μg/gram dry weight (human assay lab). A hepatic index of 1.0 is normal and results of 1.0-1.9 are described as nonspecific iron accumulation (human standards). […] FIGS. 4 and 5 show myocardial tissue from rat with iron overload.

SMILES	severe agranulocytosis, share of patients [1]	oral absorption [2]	toxic effects in control rats [3]
Cc1c(O)c(=O)ccn1C [deferiprone]	about 2%	–	–
CC(=O)N(O)CCCCCNC(=O)CCC(=O)N(O)CCCCCNC(=O)CCC(=O)N(O)CCCCCN [desferrioxamine]	–	very low	Neither liposomes nor desferrioxamine (DFO) had toxic effects

From US8029795B2, “Targeted iron chelator delivery system” (Gwathmey, Inc., priority 1999, dated 2011)
